MIC and CC50 data for 21 compounds are collected here from ChEMBL document CHEMBL4513161, “CO-ADD screening of MMV (CH) - Pandemic Response Box” (2021).

The test system of one test is Candida albicans. Description: microbe, parasite or virus in culture. The conditions noted are these: ATCC 90028, ASSAY_TEST Inhibition of Fungal Growth, detection method Absorption (OD530), plate type 384well, NBS, CORNING #3640.
For test [1], the system named is Pseudomonas aeruginosa. Description: Antibacterial activity against Pseudomonas aeruginosa PAO397 [PAO1 d(mexAB-oprM) d(mexCD-oprJ) d(mexEF-oprN) d(mexJKL) d(mexXY) d(opmH)] (CO-ADD:GN_211); MIC in CAMBH media using NBS plates, by OD(600). The format is functional. The conditions noted are these: ASSAY_TEST Inhibition of Bacterial Growth, detection method Absorption (OD600), MEDIA CAMHB, plate type 384well, CORNING #3640, time 18 hr.

The next test has as its system Acinetobacter baumannii. The experiment in a line: microbe, parasite or virus in culture. The conditions noted are these: ATCC 19606, 18 h, ASSAY_TEST Inhibition of Bacterial Growth, detection method Absorption (OD600), MEDIA CAMHB, plate type 384well, NBS, CORNING #3640.
Another test concerns HEK293. The experiment in a line: cells. The format is functional, Homo sapiens, ATCC CRL1573. Particulars: ASSAY_TEST Inhibition of Cell Viability, detection method Resazurin, Fluorescence (ex560/em590), MEDIA DMEM with 10% FBS, plate type 384well, TC, CORNING #3712, time 18 hr, read-out: CC50. (In general: The colour change of resazurin is a common sign of viable cells or microbes.)

The test system of the next test is Staphylococcus aureus. Description: microbe, parasite or virus in culture. The conditions noted are these: ATCC 43300, 18 h, ASSAY_TEST Inhibition of Bacterial Growth, detection method Absorption (OD600), MEDIA CAMHB, plate type 384well, NBS, CORNING #3640.
A further test concerns Escherichia coli. Description: microbe, parasite or virus in culture. The conditions noted are these: ATCC 25922, 18 h, ASSAY_TEST Inhibition of Bacterial Growth, detection method Absorption (OD600), MEDIA CAMHB, plate type 384well, NBS, CORNING #3640.
The test system of test [2] is Pseudomonas aeruginosa. Description: microbe, parasite or virus in culture. Particulars: ATCC 27853, 18 h, ASSAY_TEST Inhibition of Bacterial Growth, detection method Absorption (OD600), MEDIA CAMHB, plate type 384well, NBS, CORNING #3640.
The next test relates to Klebsiella pneumoniae. Description: microbe, parasite or virus in culture. The conditions noted are these: ATCC 700603, 18 h, ASSAY_TEST Inhibition of Bacterial Growth, detection method Absorption (OD600), MEDIA CAMHB, plate type 384well, NBS, CORNING #3640.
Where [3] appears, read: Homo sapiens, ATCC CRL1573, HEK293.

Usually CC50 stands for the concentration giving 50% cytotoxicity.

Each structure is given as a SMILES string. Values after ≈ are worked out from the molar mass of the structure shown. Bounds are passed on as bounds.

In the case of `CC(C)CCN1C(=O)C(C2=NS(=O)(=O)c3cc(NS(C)(=O)=O)ccc3N2)=C(O)[C@@H]2[C@H]3CC[C@H](C3)[C@@H]21`, the MIC in the test on Cryptococcus neoformans, in the test on Candida albicans, against Pseudomonas aeruginosa [1], against Acinetobacter baumannii, in the test on Staphylococcus aureus and in the test on Escherichia coli was over 20 µM in each case. The MIC in the test on Pseudomonas aeruginosa [2] and in the test with Klebsiella pneumoniae was over 20 µM throughout. Besides, in the test on HEK293 (setting [3]), the CC50 was over 20 µM.

For `Cc1cc(CCOc2c(C)cc(-c3nnn(C)n3)cc2C)on1`, the MIC against Cryptococcus neoformans, in the test on Candida albicans, against Pseudomonas aeruginosa [1], with Acinetobacter baumannii, with Staphylococcus aureus and against Escherichia coli was over 20 µM in each case. In addition, the MIC with Pseudomonas aeruginosa [2] and in the test on Klebsiella pneumoniae was over 20 µM throughout. Besides, the half-maximal cytotoxic concentration (CC50) with HEK293 (setting [3]) is over 20 µM.

Regarding `C[C@@H](NC(=O)c1cccc(-c2cnc(-c3cc4ccccc4cn3)[nH]2)c1)c1ccc(F)cc1`, the MIC against Cryptococcus neoformans, against Candida albicans, against Pseudomonas aeruginosa [1], against Acinetobacter baumannii, against Staphylococcus aureus and in the test with Escherichia coli was over 20 µM each time. Further, the MIC with Pseudomonas aeruginosa [2] and with Klebsiella pneumoniae was over 20 µM each time. Moreover, the CC50 with HEK293 (setting [3]) was found to be 10.8 µM.

Take `N=c1n(CCN2CCCCC2)c2ccccc2n1CC(O)COc1ccc(Cl)cc1Cl` (configuration not stated): the MIC against Cryptococcus neoformans, in the test on Candida albicans, against Acinetobacter baumannii, in the test with Staphylococcus aureus, in the test on Escherichia coli and against Klebsiella pneumoniae was over 20 µM each time. In the test with HEK293 (setting [3]), the 50% cytotoxic concentration (CC50) is 6.89 µM.

Take `CCN(CC)CCn1c(=N)n(CC(O)COc2ccc(Cl)cc2Cl)c2ccccc21` (configuration not stated): the MIC was over 20 µM in the test on Cryptococcus neoformans; over 20 µM with Candida albicans; over 20 µM against Acinetobacter baumannii; over 20 µM against Staphylococcus aureus; over 20 µM against Escherichia coli; 20 µM (≈ 9.03 µg/mL) against Pseudomonas aeruginosa [2]. Also, in the test on Klebsiella pneumoniae, the MIC is over 20 µM. In the test on HEK293 (setting [3]), the cytotoxic concentration (CC50) stood at 4.49 µM.

For the compound `O=C1C=C(c2ccccc2)S(=O)(=O)c2ccccc21`, the MIC against Cryptococcus neoformans is 5 µM (≈ 1.35 µg/mL); against Candida albicans, 5 µM (≈ 1.35 µg/mL); with Pseudomonas aeruginosa [1], over 20 µM; in the test with Acinetobacter baumannii, over 20 µM; against Staphylococcus aureus it was over 20 µM; against Escherichia coli, over 20 µM. Moreover, the MIC against Pseudomonas aeruginosa [2] and with Klebsiella pneumoniae was over 20 µM each time. Further, the CC50 in the test on HEK293 (setting [3]) came to 4.03 µM.

For the compound `Cn1c2ccccc2c(=O)c2c(O)cccc21`, the MIC against Cryptococcus neoformans, in the test on Candida albicans, in the test with Pseudomonas aeruginosa [1], against Acinetobacter baumannii, in the test on Staphylococcus aureus and against Escherichia coli was over 20 µM in each case. Further, the MIC in the test on Pseudomonas aeruginosa [2] and against Klebsiella pneumoniae was over 20 µM in each case. In the test with HEK293 (setting [3]), the CC50 is over 20 µM.

Take `CN(O)C(=O)c1cc2c(CN3CCC[C@H]3C(N)=O)cn(Cc3ccc(F)cc3)c2cn1`: the MIC against Cryptococcus neoformans, against Candida albicans, in the test with Pseudomonas aeruginosa [1], against Acinetobacter baumannii, against Staphylococcus aureus and in the test on Escherichia coli was over 20 µM each time. Also, the MIC in the test on Pseudomonas aeruginosa [2] and with Klebsiella pneumoniae was over 20 µM throughout. Also, the half-maximal cytotoxic concentration (CC50) in the test on HEK293 (setting [3]) is over 20 µM.

Consider `CN(C)CCCNC(=O)c1ccc(-c2cc(O)c3ncccc3c2)cc1`, for which the MIC against Cryptococcus neoformans, in the test with Candida albicans, against Pseudomonas aeruginosa [1], against Acinetobacter baumannii, in the test on Staphylococcus aureus and against Escherichia coli was over 20 µM throughout. Moreover, the MIC in the test on Pseudomonas aeruginosa [2] and in the test on Klebsiella pneumoniae was over 20 µM in each case. Moreover, in the test on HEK293 (setting [3]), the CC50 is 16.6 µM.

As to `O=C(CSc1nnc(Br)n1-c1ccc(C2CC2)c2ccccc12)Nc1ccc(C(=O)O)cc1Cl`, the MIC against Cryptococcus neoformans, against Candida albicans, against Pseudomonas aeruginosa [1], in the test with Acinetobacter baumannii, against Staphylococcus aureus and in the test with Escherichia coli was over 20 µM throughout. Further, the MIC against Pseudomonas aeruginosa [2] and in the test on Klebsiella pneumoniae was over 20 µM in each case. Besides, the CC50 in the test with HEK293 (setting [3]) was over 20 µM.

On to `CN1c2ccc(Cl)cc2N(c2ccccc2)C(=O)c2cn(Cc3ccc(CN4CCOCC4)cc3)nc21`, for which the MIC in the test with Cryptococcus neoformans, against Candida albicans, against Pseudomonas aeruginosa [1], in the test on Acinetobacter baumannii, against Staphylococcus aureus and against Escherichia coli was over 20 µM in each case. The MIC against Pseudomonas aeruginosa [2] and against Klebsiella pneumoniae was over 20 µM throughout. The CC50 with HEK293 (setting [3]) was over 20 µM.

As to `CN1C(=O)C(c2ccccc2)C(=O)N(c2ccccc2)c2cc(C(F)(F)F)ccc21` (configuration not stated), the MIC against Cryptococcus neoformans, in the test with Candida albicans, in the test on Pseudomonas aeruginosa [1], in the test with Acinetobacter baumannii, against Staphylococcus aureus and against Escherichia coli was over 20 µM throughout. Moreover, the MIC in the test on Pseudomonas aeruginosa [2] and against Klebsiella pneumoniae was over 20 µM in each case. Further, in the test with HEK293 (setting [3]), the CC50 is over 20 µM.

`O=C(O)COc1cccc2c1CC[C@](O)(COC(=O)N(c1ccccc1)c1ccccc1)C2`: the MIC against Cryptococcus neoformans, in the test on Candida albicans, in the test on Pseudomonas aeruginosa [1], with Acinetobacter baumannii, in the test on Staphylococcus aureus and with Escherichia coli was over 20 µM throughout. For the same compound, the MIC against Pseudomonas aeruginosa [2] and against Klebsiella pneumoniae was over 20 µM throughout. In addition, the CC50 with HEK293 (setting [3]) is over 20 µM.

With `CC(C)(C)NC(=O)[C@@H]1CN(Cc2cnc3occc3c2)CCN1C[C@@H](O)C[C@@H](Cc1ccccc1)C(=O)N[C@H]1c2ccccc2C[C@H]1O`, the MIC in the test with Cryptococcus neoformans, in the test with Candida albicans, in the test on Pseudomonas aeruginosa [1], in the test on Acinetobacter baumannii, in the test with Staphylococcus aureus and with Escherichia coli was over 20 µM throughout. Besides, the MIC in the test on Pseudomonas aeruginosa [2] and against Klebsiella pneumoniae was over 20 µM each time. Moreover, the CC50 in the test on HEK293 (setting [3]) is over 20 µM.

As to `O=C(O)C[C@H]1CC[C@H](c2ccc(-c3ccc(Nc4ccc(C(F)(F)F)nc4)cn3)cc2)CC1`, the MIC against Cryptococcus neoformans, against Candida albicans, against Pseudomonas aeruginosa [1], with Acinetobacter baumannii, against Staphylococcus aureus and with Escherichia coli was over 20 µM each time. For the same compound, the MIC against Pseudomonas aeruginosa [2] and in the test with Klebsiella pneumoniae was over 20 µM in each case. The CC50 with HEK293 (setting [3]) is over 20 µM.

In the test with Cryptococcus neoformans, `CC(Oc1ccc(Cl)cc1Cl)C(=O)NCc1ccc2c(c1)OCO2` (configuration not stated) registered an MIC of over 20 µM. For the same compound, the CC50 with HEK293 (setting [3]) is over 20 µM.

Consider `Cc1nc(N(C)C(=O)Cc2ccc(-c3ccccn3)cc2)sc1S(N)(=O)=O`, for which the MIC in the test with Cryptococcus neoformans, in the test with Candida albicans, against Pseudomonas aeruginosa [1], in the test on Acinetobacter baumannii, against Staphylococcus aureus and against Escherichia coli was over 20 µM each time. The MIC with Pseudomonas aeruginosa [2] and in the test with Klebsiella pneumoniae was over 20 µM throughout. Moreover, the CC50 with HEK293 (setting [3]) was over 20 µM.

Regarding `Nc1nc(F)nc2c1ncn2[C@H]1O[C@@H](CO)[C@H](O)[C@@H]1O`, the MIC in the test with Cryptococcus neoformans, in the test with Candida albicans, against Pseudomonas aeruginosa [1], with Acinetobacter baumannii, in the test with Staphylococcus aureus and against Escherichia coli was over 20 µM throughout. Besides, the MIC in the test on Pseudomonas aeruginosa [2] and in the test with Klebsiella pneumoniae was over 20 µM each time. Further, the cytotoxic concentration (CC50) in the test on HEK293 (setting [3]) worked out at 0.535 µM.

`Clc1ccc(COC(Cn2ccnc2)c2ccc(Cl)cc2Cl)c(Cl)c1` (configuration not stated): the MIC is 0.625 µM (≈ 0.26 µg/mL) with Cryptococcus neoformans and over 20 µM against Pseudomonas aeruginosa [1]. Also, in the test with HEK293, the CC50 is over 20 µM.

For the compound `C=CCN(C(=O)OCc1ccc([N+](=O)[O-])cc1)C1CCN(CC[C@](C)(CN(C)S(=O)(=O)c2ccccc2)c2ccccc2)CC1`, the MIC against Cryptococcus neoformans, against Candida albicans, with Pseudomonas aeruginosa [1], against Acinetobacter baumannii, with Staphylococcus aureus and in the test with Escherichia coli was over 20 µM in each case. For the same compound, the MIC with Pseudomonas aeruginosa [2] and against Klebsiella pneumoniae was over 20 µM in each case. Moreover, the CC50 in the test with HEK293 (setting [3]) was over 20 µM.

For the compound `CC1(C)[C@H](C(=O)O)N2C(=O)C[C@H]2S1(=O)=O` [SULBACTAM], the MIC against Cryptococcus neoformans, in the test on Candida albicans, against Pseudomonas aeruginosa [1], against Acinetobacter baumannii, against Staphylococcus aureus and with Escherichia coli was over 20 µM throughout. The same compound came in with an MIC against Pseudomonas aeruginosa [2] of 2.5 µM (≈ 0.583 µg/mL). Also, in the test with HEK293 (setting [3]), the CC50 was over 20 µM.
